Measurements as given in US8236523B2, “Camp reporters and high throughput assays” (The Johns Hopkins University, priority 2004, dated 2012).

Key:
Format in all cases: cell-based
[1] = test system: cAMP; experiment: High throughput 96-well plate assay using ICUE2 stable HEK293 cells
Protocol: HEK293 cells which stably express ICUE2 (“ICUE2 stable HEK293 cells”) were grown to confluency in 10 cm dishes in DMEM, 10% FBS, 1% penicillin/streptomycin, and 250 μg/ml G418. HEK-293 cells were transfected with cDNA encoding ICUE2 using calcium phosphate at 40% confluency and allowed to grow for 40 hours. Cells were removed from the dish using 0.05% trypsin, spun down, and replaced with fresh media. ICUE2 stable HEK293 cells were counted on a hemocytometer using trypan blue stain. One hundred fifty thousand (150,000) cells were plated per well on a 96-well clear bottom assay plate in a total of 0.2 ml of media per […] and allowed to double once. Media was removed, cells were washed with Hanks buffered salt solution (HBSS) and then covered with 0.05 ml of HBSS per well. In a separate sterile plate, appropriate drugs were added to each well containing HBSS for a total volume of 0.05 ml. […] A baseline was established in three cycles, each consisting of a full plate reading of yellow intensity, followed by a reading of cyan intensity. Cells were then treated with isoproterenol (ISO; […] Readings were taken in six or twenty additional cycles. […] Baseline FRET ratios were calculated as the average ratio of yellow/cyan for each well before the addition of drug. FRET change was calculated as the percent increase of FRET ratio over baseline for each well during a given cycle. The FRET changes of all wells having undergone the same drug treatment were then averaged within each cycle, and that cycle was correlated with time.

[2] = test system: cAMP; experiment: Dual-emission ratio (FRET) imaging of Epac-based cAMP reporters (ICUE1 and targeted fusions) in HEK-293 cells; conditions: HEK293 cells expressing ICUE1, 10 μM ISO, 50 μM FSK
Protocol: Cell Culture. […] Cells were then transfected with FuGENE-6 transfection reagent (Roche) or calcium phosphate and allowed to grow for 12-24 hours before imaging.
Imaging. Cells were washed twice with Hanks' balanced salt solution buffer after 12- to 24-h incubation at 37° C. culture medium. Cells were maintained in buffer in the dark at room temperature with addition of isoproterenol (Aldrich), forskolin (Calbiochem), Prostaglandin E1 (PGE1) (Sigma), and 8-(4-chloro-phenylthio)-2′-O-methyl adenosine 3′,5′-monophosphate (8-pCPT-2′-O-Me-cAMP) (Axxora Biolog) as indicated. Cells were also treated with P-(4,5-dimethoxy-2-nitrobenzyl) adenosine 3′,5′-monophosphate (DMNB-cAMP) (Molecular Probe).
Cells were imaged on a Zeiss Axiovert 200M microscope with a cooled charge-coupled device camera MicroMAX BFT512 (Roper Scientific) controlled by METAFLUOR 6.2 software (Universal Imaging). Dual-emission ratio imaging used a 420DF20 excitation filter, a 450DRLP dichroic mirror and two emission filters (475DF40 for ECFP, 535DF25 for citrine) alternated by a filter changer Lambda 10-2 (Sutter Instruments). Exposure time was 100-500 ms and images were taken every 8-30 s. Fluorescent images were background-corrected by subtracting autofluorescence intensities of untransfected cells (or background with no cells) from the emission intensities of fluorescent cells expressing reporters. The ratios of cyan to yellow emissions were then calculated at different time points and normalized by dividing all ratios by the emission ratio just prior to stimulation therefore setting the basal emission ratio to 1.

[3] = test system: cAMP; experiment: 96-well live cell plate reading of HEK293 cells expressing ICUE3; conditions: 1 μM ISO, 50 μM FSK
Protocol: Plate reading used a 420DF20 excitation filter and two emission filters (470DF40 for cyan and 535DF25 for yellow). A baseline was established in three cycles, each consisting of a full plate reading of yellow intensity, followed by a reading of cyan intensity. Cells were then treated with isoproterenol (ISO; Aldrich), forskolin (Calbiochem), H89, propranolol, and 3-isobutyl-1-methylxanthine (IBMX) as indicated. Readings were taken in six or twenty additional cycles. Each cycle lasted 60 to 145 sec. Baseline FRET ratios were calculated as the average ratio of yellow/cyan for each well before the addition of drug. FRET change was calculated as the percent increase of FRET ratio over baseline for each well during a given cycle. The FRET changes of all wells having undergone the same drug treatment were then averaged within each cycle, and that cycle was correlated with time.
Live cell plate reading. HEK293 cells were transfected with cDNA encoding ICUE reporters using calcium phosphate at 40% confluency and allowed to grow for 40 hours. Cells were then trypsinized and plated in a Costar 3603 96-well assay plate (Coming) at a density of 150,000 cells per well. After incubation for another 24 hours, cells were washed once with HBSS and left in 150 μl HBSS at 20-25° C. Fluorescence reading was taken on a FLUOstar OPTIMA fluorescence microplate reader (BMG Labtechnologies Inc.) using a 420DF20 excitation filter and two emission filters (470DF40 for cyan and […] for yellow). A baseline was established in three cycles, each consisting of a full plate reading of yellow intensity, followed by a reading of cyan intensity. Each cycle lasted between 64 and 145 seconds. Readings were taken in additional cycles. FRET change was calculated as the percent increase of emission ratios (cyan-to-yellow) over baseline for each well during a given cycle. To assess the efficacy of the assay, several statistical parameters were calculated, including Z factor, coefficient of variation, and signal-to-noise ratio (Zhang et al., J. Biomol. Screen. 4, 67-73, 1999).

CC(C)NCC(O)c1ccc(O)c(O)c1 (stereo not shown) [isoproterenol]
character of ICUE2 response (in words) ([1]; 1 μM ISO, 100 μM IBMX, 50 μM FSK): transient responses | Average percent FRET response ± standard deviation, cycle 1 ([1]; cycle 1 (1 cycle = 60 seconds), 1 μM Iso, 50 μM Fsk, 10 μM H89, 100 μM IBMX): 8.22% ± 5.97% | Average percent FRET response ± standard deviation, cycle 2 ([1]; cycle 2 (1 cycle = 60 seconds), 1 μM Iso, 50 μM Fsk, 10 μM H89, 100 μM IBMX): 20.2% ± 1.69% | Average percent FRET response ± standard deviation, cycle 3 ([1]; cycle 3 (1 cycle = 60 seconds), 1 μM Iso, 50 μM Fsk, 10 μM H89, 100 μM IBMX): 21.59% ± 2.65% | Average percent FRET response ± standard deviation, cycle 4 ([1]; cycle 4 (1 cycle = 60 seconds), 1 μM Iso, 50 μM Fsk, 10 μM H89, 100 μM IBMX): 22.44% ± 2.42% | Average percent FRET response ± standard deviation, cycle 5 ([1]; cycle 5 (1 cycle = 60 seconds), 1 μM Iso, 50 μM Fsk, 10 μM H89, 100 μM IBMX): 21.47% ± 2.92% | Average percent FRET response ± standard deviation, cycle 6 ([1]; cycle 6 (1 cycle = 60 seconds), 1 μM Iso, 50 μM Fsk, 10 μM H89, 100 μM IBMX): 19.64% ± 1.73 | Average percent FRET response ± standard deviation, cycle 7 ([1]; cycle 7 (1 cycle = 60 seconds), 1 μM Iso, 50 μM Fsk, 10 μM H89, 100 μM IBMX): 17.36% ± 1.28% | Average percent FRET response ± standard deviation, cycle 8 ([1]; cycle 8 (1 cycle = 60 seconds), 1 μM Iso, 50 μM Fsk, 10 μM H89, 100 μM IBMX): 15.93% ± 2.0% | Average percent FRET response ± standard deviation, cycle 9 ([1]; cycle 9 (1 cycle = 60 seconds), 1 μM Iso, 50 μM Fsk, 10 μM H89, 100 μM IBMX): 14.45% ± 3.55% | Average percent FRET response ± standard deviation, cycle 10 ([1]; cycle 10 (1 cycle = 60 seconds), 1 μM Iso, 50 μM Fsk, 10 μM H89, 100 μM IBMX): 11.07% ± 2.19% | Average percent FRET response ± standard deviation, cycle 11 ([1]; cycle 11 (1 cycle = 60 seconds), 1 μM Iso, 50 μM Fsk, 10 μM H89, 100 μM IBMX): 6.94% ± 1.93 | Average percent FRET response ± standard deviation, cycle 12 ([1]; cycle 12 (1 cycle = 60 seconds), 1 μM Iso, 50 μM Fsk, 10 μM H89, 100 μM IBMX): 2.26% ± 5.45% | Average percent FRET response ± standard deviation, cycle 13 ([1]; cycle 13 (1 cycle = 60 seconds), 1 μM Iso, 50 μM Fsk, 10 μM H89, 100 μM IBMX): 2.47% ± 6.06% | Average percent FRET response ± standard deviation, cycle 14 ([1]; cycle 14 (1 cycle = 60 seconds), 1 μM Iso, 50 μM Fsk, 10 μM H89, 100 μM IBMX): 2.27% ± 3.37% | Average percent FRET response ± standard deviation, cycle 15 ([1]; cycle 15 (1 cycle = 60 seconds), 1 μM Iso, 50 μM Fsk, 10 μM H89, 100 μM IBMX): 1.80% ± 5.84% | Average percent FRET response ± standard deviation, cycle 16 ([1]; cycle 16 (1 cycle = 60 seconds), 1 μM Iso, 50 μM Fsk, 10 μM H89, 100 μM IBMX): 1.05% ± 5.87% | Average percent FRET response ± standard deviation, cycle 17 ([1]; cycle 17 (1 cycle = 60 seconds), 1 μM Iso, 50 μM Fsk, 10 μM H89, 100 μM IBMX): 1.29% ± 2.72% | Average percent FRET response ± standard deviation, cycle 18 ([1]; cycle 18 (1 cycle = 60 seconds), 1 μM Iso, 50 μM Fsk, 10 μM H89, 100 μM IBMX): 1.68% ± 6.12% | Average percent FRET response ± standard deviation, cycle 19 ([1]; cycle 19 (1 cycle = 60 seconds), 1 μM Iso, 50 μM Fsk, 10 μM H89, 100 μM IBMX): 2.52% ± 3.54% | Average percent FRET response ± standard deviation, cycle 20 ([1]; cycle 20 (1 cycle = 60 seconds), 1 μM Iso, 50 μM Fsk, 10 μM H89, 100 μM IBMX): 0.93% ± 4.45% | time to plateau / maximal change in emission ratio ([2]; 10 μM PGE1): 1.5 to 3 min | increase in the ratio of cyan to yellow emissions (FRET response) ([2]; 10 μM PGE1, 300 μM 8-pCPT-2′-O-Me-cAMP, average ± S.E.M): 16.8%±1.0 | character of ICUE3 response (in words) [3]: transient responses | maximal response / emission ratio change ([3]; HEK293 cells expressing ICUE3, n=7): 8.10%±1.4%
